Source: US10675286B2, “Heterocyclic compounds and uses thereof” (Infinity Pharmaceuticals, Inc., priority 2014, dated 2020)
Read-outs that look alike come from different tables or passages of the source.

Columns and labels:
PI3K γ = PI3K γ (Homo sapiens (Human), UniProt P48736); assay: PI3-Kinase Promega ADP-Glo Max assay, γ isoform; assay type: biochemical
Description: Promega ADP-Glo Max assay kit (Cat. No. V7002) was utilized to determine IC50 values for α, β, δ and γ isoforms of human Class I PI3 kinases (Millipore). […] Reactions were incubated at room temperature for 2 hours followed by addition of 25 uL of stop solution. After a 40-minute incubation at room temperature, 50 uL of Promega detection mix was added followed by incubation for 1 hour at room temperature. Plates were then read on Envision plate reader in luminescence mode. Data was converted to % inhibition using the following equation below:
[formula] where S is the sample luminescence, Pos is a positive control without added PI3K, Neg is the negative control without added compound. Data was then plotted as % inhibition vs compound concentration.

PI3K-δ = PI3K-δ (Homo sapiens (Human), UniProt O00329); assay: RAJI p110 δ assay (phospho-AKT in anti-human IgM stimulated RAJI cells); assay type: cell-based
Description: Reduction of phospho-AKT is indicative of compounds that may inhibit B-cell proliferation and function in certain diseases.
Certain compounds provided herein were tested in RAJI cell model using procedures as described above.

PI3K-γ = PI3K-γ (Mus musculus (Mouse), UniProt Q9JHG7); assay: Raw264.7 p110 γ assay (C5a-mediated phospho-AKT in RAW264.7 macrophages); assay type: cell-based
From the text: Briefly, serum-starved RAW264.7 cells are stimulated with a known GPCR agonist C5a. […] Cells can be treated with test compounds prior to, simultaneously with, or subsequent to the stimulation by C5a. RAW 264.7 cells respond to the complement component fragment C5a through activation of the C5a receptor, and the C5a receptor activates macrophages and induces cell migration.

[1] = Pharmacokinetics of Compound 88 in female C57 mice, PO; assay type: in vivo, mouse; conditions: for tlast / AUC: female C57 mice; for AUC: mouse, plasma, read-out: AUC0_INF
Description: Animals were weighed daily prior to dosing. […] On subsequent dosing days, the animals' condition was noted prior to dosing; the animals were observed within 4 hours of dosing, and at the end of the day.
Samples were collected at pre-dose 0.25, 0.5, 1, 2, 4, 6 and 24 h following the first dose on day 1 and pre-dose (trough), 0.25, 0.5, 1, 2, 4, 6 and 24 h following the final dose on day 3. Animals received a single oral dose daily for 3 consecutive days. Blood was collected by retro-orbital bleeding for all time points on day 1. All other blood sampling was collected by a cardiac puncture. Blood was collected into K2EDTA tubes and placed on wet ice. Within 15 min of collection, the sample was centrifuged at 10,000 rpm at 4° C. for 10 min in a bench top centrifuge and the plasma transferred to a new microcentrifuge tube.
A similar study was carried out using Compound 88. […] Below is a table that details the results for Compound 88: […]

LLC tumor brei = LLC tumor brei model, Compound BB with or without cyclophosphamide; assay type: in vivo, mouse; conditions: Compound BB 15 mg/kg QD PO, cyclophosphamide 50 mg/kg EOD IP
Description: In this experiment, treatment began when tumors reached approx. 150 mm^3—around day 12. Caliper and xenogen images were monitored. Treatment groups n=13-15/group. […] Samples for FACs analysis were collected on day 23 post implant. Using FACS, cells were assayed for the level of CD11b and Gr-1.

[2] = system: haematological malignancies; conditions: cited from earlier work
human T cells = assay: Concanavalin A-induced model for activation of human T cells (IFN-γ); assay type: cell-based
[3] = system: IL-8 induced neutrophil migration; assay: IL-8 driven murine air pouch model; assay type: in vivo; conditions: mouse; Compound BB 0.1, 0.3, 1, 3 mg/kg; Compound AA 10, 25, about 50 mg/kg; vs vehicle
From the text: IL-8 chemoattracts and activates neutrophils.

[4] = system: CXCL12-induced T cell migration; assay: CXCL12-induced T-cell migration in CLL PBMCs (transwell); assay type: cell-based; conditions: Homo sapiens
Description: Specifically, the material used were media (RPMI+0.5% Fetal Bovine Serum+Pen/Strep), total CLL PBMCs (AllCells), CoStar 24-transwell plates ([…]) #3421, BD Cytofix Fixation Buffer (#554655), BD FBS Stain Buffer (BD Biosciences, 554656), Deep 96-well plate (Axygen, P-2ML-SQ-C), rhCXCL12 (R&D, 350-NS-050), CD-19 APC Cy7 (BD #348794 1:20), CD3-PerCPCy5.5 (BD #560835, 1:20), CD5-PE (Biolegend #300608, 1:5), CD4-FITC (BD #561842, 1:20), and CD8-APC (BD #561953, 1:20).
Total CLL human PBMCs were preincubated with Compound AA or BB in media for 45 minutes at 37° C. […] After the 45 minutes of compound preincubation, 500-750K CLL PBMCs were placed in the upper chamber of the transwell insert in a total volume of 100 uL. The cells were allowed to migrate for 2-4 hours at 37° C. The inserts were removed, and 550 uL media from lower chamber were transferred into a deep 96-well plate. The cells were spun at 1280 rpm for 5 minutes and flick media. The cells were resuspended in 400 uL BD Cytofixation buffer and incubated at RT for 10 minutes. 1 mL BD FBS stain buffer was added. The cells were spun at 1280 rpm and fixation buffer was disposed. The cells were resuspended in 100 uL of CD3,4,8,5,19 antibody cocktail made up in BD FBS stain buffer, which was then incubated at room temperature in the dark for 30-60 minutes. 1 mL BD FBS stain buffer was added to each well, which was then spun and flicked. The cells were resuspended in 150 uL FBS stain buffer and transferred to FACS tubes already containing 150 uL FBS stain buffer. Each sample was read on the FACS for 25 seconds. Gate on CD3, 4, 8 and CD19/5 subpopulations individually and calculate average migration index from triplicate samples. See e.g., Borge et al., haematologica 2010, 95(5): 768-775; de Rooij et al., Blood 2012, 119: 2590-2594.

[5] = system: LPS-induced neutrophil influx into BALF; assay: LPS-induced neutrophilia in rats, oral administration; assay type: in vivo; conditions: rat, p.o., 4 hours post-LPS challenge; dose dependent
Description: (§1) This study also includes assessment of the exposure to the compounds in plasma and lung tissues.
(§2) Ref C is budesonide p.o. The compound was administered p.o. and about 1 hour later, LPS was administered intra-tracheally and plasma was collected. After about 5 hours, plasma and bronchoalveolar lavage samples were collected.

[6] = Oral PK in the rat LPS studies (free plasma concentration); assay type: in vivo; conditions: for Free Plasma Conc (nM): p.o. 0.2 mg/kg
Description: as §1, §2

[7] = system: CXCL12 induced p-AKT in bone marrow derived macrophages; assay: CXCL12-induced p-AKT induction assay in differentiated, polarized macrophages; assay type: cell-based, mouse
From the text: Long bones from young C57B6 mice were harvested and bone marrow was extruded by gentle lavage of the bone marrow cavities with a 28 gauge needle. Red blood cells were removed using red blood cell lysis buffer (Sigma). Bone marrow cells were differentiated to macrophages using MCSF for 6 days (RPMI and 20% FCS) with one media change (with removal of all non-adherent cells) at day 3. Macrophages were polarized into M0 (MCSF), M1 (MCSF, IFNγ, and LPS for 1 day), or M2 (MCSF, IL4 for 2 days).
Polarized macrophages were lifted with Acutase, and plated at 0.5M cells per well (0.5 ml) in a deep well (2 ml) non adherant plate in polarization media for 1 hour. […] CXCL12 was added, and the cells were mixed on a plate shaker for 2 minutes. 1 ml of 37 degree FACS Lyse/fix buffer (BD bioscience) was added and the plate was mixed for 1 minute. The plates were spun and decanted and frozen at −80° C. Phospho AKT staining with anti Phospho AKT 473 PERCP labeled (Cell Signaling Technologies) was performed and measured by flow cytometry. Total cell MFI was used to calculate the effect of tested compound on CXCL12 induction of phospho AKT.

[8] = system: T cell activation (IFN-γ in response to ConA); assay: T cell activation in human whole blood (Con-A, IFN-γ readout); assay type: cell-based; conditions: 24 hours, read-out: IC50, T cell activation as measured by inhibition of IFN-γ
Description: The purpose of this study is to evaluate the effect of various antigens (Con-A) in T cell activation in Human Whole Blood vs. 1:1 Diluted Blood using test compounds at 24 hour time-point.
T-cell Activation Media includes RPMI-1000 ml, MEM NEAA-10 ml, Sodium Pyruvate (100 mM)-10 ml, Pen Strep-10 ml, 2-Mercaptoethanol-1 ml, and FBS-100 ml. 100 ul of whole blood were plated in 96 well plate. Used only the 60 inside wells and filled the outside with media or PBS. Diluted human whole blood with 5% Serum RPMI 1640 1:1 and plate 100 ul in 96 well plate. Used only the 60 inside wells and filled the outside with media or PBS.
The compound was diluted using DMSO (Sigma hybridmax). For 1000 nM highest concentration starting from a 10 mM stock, added 300 ul of DMSO into deep well plates. To the highest concentration add 10 ul of 10 mM compound stock.
A media plate was prepared from DMSO plate by taking 100 ul and go into 900 ul media in new deep well plate, taping plate, and putting on mixer for 5 minutes.
The rested cell plates were removed from incubator. Added 12 uL of diluted compound from media plate (final DMSO is 1%), and incubated for 45 minutes.
Con-A was prepared as follows: 200 ul stock into 1 ml Media, 100 ul of that into 1 ml Media, 100 ul of that into 1 ml Media. […] This was analyzed after 24 Hours.
10× stock in media, added 12 ul per well. […] Analyzed with multiplex elisa from MSD. […]

Chain of PI3K-γ (Q9JHG7 whole entry): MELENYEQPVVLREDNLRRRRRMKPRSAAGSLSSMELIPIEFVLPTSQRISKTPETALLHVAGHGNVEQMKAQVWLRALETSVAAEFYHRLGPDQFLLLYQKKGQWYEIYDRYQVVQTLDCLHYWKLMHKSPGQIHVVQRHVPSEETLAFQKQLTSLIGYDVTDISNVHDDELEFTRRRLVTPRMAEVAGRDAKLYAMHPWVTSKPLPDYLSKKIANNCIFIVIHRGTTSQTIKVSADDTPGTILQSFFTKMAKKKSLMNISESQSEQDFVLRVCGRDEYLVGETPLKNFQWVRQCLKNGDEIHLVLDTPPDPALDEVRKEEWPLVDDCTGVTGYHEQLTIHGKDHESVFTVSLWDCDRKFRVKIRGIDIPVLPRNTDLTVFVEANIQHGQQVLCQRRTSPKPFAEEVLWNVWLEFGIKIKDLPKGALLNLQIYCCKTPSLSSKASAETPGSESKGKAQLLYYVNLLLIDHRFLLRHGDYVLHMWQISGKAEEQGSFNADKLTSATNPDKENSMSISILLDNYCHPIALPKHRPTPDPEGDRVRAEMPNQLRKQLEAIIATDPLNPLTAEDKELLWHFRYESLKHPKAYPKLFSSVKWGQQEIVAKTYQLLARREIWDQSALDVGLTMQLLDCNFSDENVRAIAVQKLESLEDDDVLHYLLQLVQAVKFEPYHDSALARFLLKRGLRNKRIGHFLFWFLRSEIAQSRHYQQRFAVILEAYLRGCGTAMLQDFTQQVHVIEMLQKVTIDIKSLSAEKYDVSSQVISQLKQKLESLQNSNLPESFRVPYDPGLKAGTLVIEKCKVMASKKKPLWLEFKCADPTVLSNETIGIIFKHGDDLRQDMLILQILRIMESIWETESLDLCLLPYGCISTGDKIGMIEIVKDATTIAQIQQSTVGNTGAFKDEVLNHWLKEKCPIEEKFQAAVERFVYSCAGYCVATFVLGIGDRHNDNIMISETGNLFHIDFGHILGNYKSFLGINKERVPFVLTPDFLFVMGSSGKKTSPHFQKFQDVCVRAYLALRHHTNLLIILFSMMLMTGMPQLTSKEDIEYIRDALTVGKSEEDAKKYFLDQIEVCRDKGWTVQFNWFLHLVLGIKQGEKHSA
Chain of PI3K-δ (O00329 whole entry): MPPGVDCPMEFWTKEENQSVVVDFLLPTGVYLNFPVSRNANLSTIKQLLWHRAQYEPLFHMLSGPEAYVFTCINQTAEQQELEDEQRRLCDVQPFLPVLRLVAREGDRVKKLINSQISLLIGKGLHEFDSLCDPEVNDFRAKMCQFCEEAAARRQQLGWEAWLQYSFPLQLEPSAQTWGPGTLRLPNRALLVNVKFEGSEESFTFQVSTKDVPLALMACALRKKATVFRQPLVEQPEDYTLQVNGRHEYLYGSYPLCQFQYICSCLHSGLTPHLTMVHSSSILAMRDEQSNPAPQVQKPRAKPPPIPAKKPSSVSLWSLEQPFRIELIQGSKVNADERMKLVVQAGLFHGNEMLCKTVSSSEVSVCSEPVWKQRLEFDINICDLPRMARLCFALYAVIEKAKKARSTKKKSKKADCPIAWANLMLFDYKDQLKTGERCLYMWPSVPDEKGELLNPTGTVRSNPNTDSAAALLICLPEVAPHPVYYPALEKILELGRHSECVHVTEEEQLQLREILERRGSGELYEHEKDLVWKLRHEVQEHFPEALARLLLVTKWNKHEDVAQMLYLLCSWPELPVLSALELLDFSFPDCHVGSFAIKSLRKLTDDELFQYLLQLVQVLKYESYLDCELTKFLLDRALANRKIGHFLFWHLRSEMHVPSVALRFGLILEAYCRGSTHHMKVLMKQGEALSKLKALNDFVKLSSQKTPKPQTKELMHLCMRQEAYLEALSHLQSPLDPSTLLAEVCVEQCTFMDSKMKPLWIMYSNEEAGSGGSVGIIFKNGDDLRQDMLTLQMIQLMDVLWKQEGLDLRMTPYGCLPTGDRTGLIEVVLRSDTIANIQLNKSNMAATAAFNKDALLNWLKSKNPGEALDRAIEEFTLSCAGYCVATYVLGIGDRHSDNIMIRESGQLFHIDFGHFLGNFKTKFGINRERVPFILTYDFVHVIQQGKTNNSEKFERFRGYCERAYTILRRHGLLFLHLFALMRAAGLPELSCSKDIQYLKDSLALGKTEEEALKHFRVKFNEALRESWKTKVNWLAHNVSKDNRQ
Chain of PI3K-δ (P27986 whole entry partner): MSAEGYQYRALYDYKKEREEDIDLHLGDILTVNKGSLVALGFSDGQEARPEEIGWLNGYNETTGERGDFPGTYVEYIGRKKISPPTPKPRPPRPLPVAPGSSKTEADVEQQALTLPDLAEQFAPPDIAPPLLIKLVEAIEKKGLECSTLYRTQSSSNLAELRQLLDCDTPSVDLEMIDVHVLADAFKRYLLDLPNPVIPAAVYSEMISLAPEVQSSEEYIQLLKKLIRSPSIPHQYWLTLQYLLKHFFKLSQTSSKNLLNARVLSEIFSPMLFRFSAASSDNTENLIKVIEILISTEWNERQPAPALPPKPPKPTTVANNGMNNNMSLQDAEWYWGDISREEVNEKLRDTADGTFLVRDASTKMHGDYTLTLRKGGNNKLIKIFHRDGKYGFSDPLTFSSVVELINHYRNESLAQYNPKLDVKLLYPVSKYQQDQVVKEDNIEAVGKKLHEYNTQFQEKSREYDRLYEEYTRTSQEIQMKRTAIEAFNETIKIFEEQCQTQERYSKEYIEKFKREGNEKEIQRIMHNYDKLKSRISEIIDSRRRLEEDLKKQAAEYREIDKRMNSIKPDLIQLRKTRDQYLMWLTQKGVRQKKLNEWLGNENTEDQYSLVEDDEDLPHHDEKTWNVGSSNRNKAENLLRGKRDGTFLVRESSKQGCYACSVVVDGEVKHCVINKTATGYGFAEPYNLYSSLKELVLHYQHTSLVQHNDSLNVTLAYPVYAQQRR
Chain of PI3K γ (P48736 whole entry, canonical isoform): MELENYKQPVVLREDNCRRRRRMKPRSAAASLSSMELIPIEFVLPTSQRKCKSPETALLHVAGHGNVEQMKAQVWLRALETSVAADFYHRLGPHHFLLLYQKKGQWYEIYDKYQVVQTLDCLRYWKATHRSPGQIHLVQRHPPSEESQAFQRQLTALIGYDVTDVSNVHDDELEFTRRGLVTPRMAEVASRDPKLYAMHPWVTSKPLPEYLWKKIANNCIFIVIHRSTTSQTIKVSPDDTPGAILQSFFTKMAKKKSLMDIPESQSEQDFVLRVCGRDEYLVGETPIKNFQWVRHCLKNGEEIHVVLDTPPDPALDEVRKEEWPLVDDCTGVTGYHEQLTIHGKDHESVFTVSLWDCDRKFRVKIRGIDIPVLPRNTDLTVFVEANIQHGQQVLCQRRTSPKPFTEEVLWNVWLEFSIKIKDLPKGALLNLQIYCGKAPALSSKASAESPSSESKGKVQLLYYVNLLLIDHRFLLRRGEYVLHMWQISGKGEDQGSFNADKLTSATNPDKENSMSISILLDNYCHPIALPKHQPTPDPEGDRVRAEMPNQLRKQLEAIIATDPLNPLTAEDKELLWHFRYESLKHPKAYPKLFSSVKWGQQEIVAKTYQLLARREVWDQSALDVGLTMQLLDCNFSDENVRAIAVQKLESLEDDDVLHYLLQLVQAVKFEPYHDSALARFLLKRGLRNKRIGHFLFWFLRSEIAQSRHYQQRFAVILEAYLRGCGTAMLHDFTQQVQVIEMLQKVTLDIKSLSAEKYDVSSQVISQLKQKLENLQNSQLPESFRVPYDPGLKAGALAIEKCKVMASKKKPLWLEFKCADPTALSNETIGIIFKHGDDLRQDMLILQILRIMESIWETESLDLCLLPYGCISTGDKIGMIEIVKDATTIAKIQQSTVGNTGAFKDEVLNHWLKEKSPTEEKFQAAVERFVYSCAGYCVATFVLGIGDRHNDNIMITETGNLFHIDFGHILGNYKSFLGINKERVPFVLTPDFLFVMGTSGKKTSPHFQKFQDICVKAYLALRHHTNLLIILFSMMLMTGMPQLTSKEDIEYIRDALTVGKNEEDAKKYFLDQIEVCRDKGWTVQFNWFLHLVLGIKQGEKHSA

## C[C@H](NC(=O)c1c(N)nn2cccnc12)c1cc2cccc(C#Cc3ccn[nH]3)c2c(=O)n1-c1ccccc1 [Compound 43]
PI3K γ
  PI3K δ/PI3K γ IC50 (selectivity): Y (Y = 50 to <850)
PI3K-δ
  IC50: 100 to 500 nM
PI3K-γ
  RAJI δ/Raw264.7 γ IC50 (selectivity): X (X = 10 to <50)
PI3K-γ; phospho-AKT
  IC50: 1 to 50 nM

## Cc1c(C#Cc2cccc3nc([C@H](C)NC(=O)c4c(N)nn5cccnc45)n(-c4ccccc4)c(=O)c23)cnn1C [Compound 88, (S)-2-amino-N-(1-(5-((1,5-dimethyl-1H-pyrazol-4-yl)ethynyl)-4-oxo-3-phenyl-3,4-dihydroquinazolin-2-yl)ethyl)pyrazolo[1,5-a]pyrimidine-3-carboxamide]
[1]; 2 mg/kg PO NMP
  tlast: 8 h
[1]; 7.5 mg/kg PO NMP
  tlast: 24 h
  AUC: 20700 ng·h/mL
[1]; 15 mg/kg PO NMP
  tlast: 24 h
  AUC: 81200 ng·h/mL
[1]; female C57 mice, 2, 7.5 or 15 mg/kg PO
  Stability in serum: good stability in serum

## O=P1(N(CCCl)CCCl)NCCCO1 (centres unmarked) [cyclophosphamide, reference compound]
LLC tumor brei
  Tumor growth (FIG. 48): reduced tumor growth by about the same amount

## CC[C@H](Nc1ncnc2[nH]cnc12)c1nc2cccc(F)c2c(=O)n1-c1ccccc1 [CAL-101]
[2]; phase 1 trial, patients with poor prognostic characteristics
  clinical activity in CLL: showed activity
[2]; single agent
  clinical activity in mantle cell lymphoma and refractory non Hodgkin's lymphoma: active

## CC(C)n1c([C@H](C)Nc2ncnc(N)c2C#N)cc2cccc(-c3ccc(=O)n(C)c3)c2c1=O [Compound AA, reference compound]
Human T cells
  inhibition of IFN-γ: highly selective inhibitor
[3]
  IL-8 induced neutrophil migration into air pouch: does not inhibit IL-8 induced neutrophil migration
[4]; T-cell subset CD3+, read-out: EC50 (nM), CXCL12 induced T-cell migration
  EC50: 630 ± 71 nM
[4]; T-cell subset CD4+, read-out: EC50 (nM), CXCL12 induced T-cell migration
  EC50: 726 ± 230 nM
[4]; T-cell subset CD8+, read-out: EC50 (nM), CXCL12 induced T-cell migration
  EC50: 423 ± 290 nM
[4]; read-out: EC50, inhibition of CXCL12-induced CD3+ T cell migration (FIG. 8)
  EC50: 694 nM
[5]
  Neutrophil in bronchoalveolar lavage fluid (BALF): reduced neutrophil in bronchoalveolar lavage fluid (BALF)
[6]; highest dose levels, gamma for Compound BB, delta for Compound AA
  Free plasma levels relative to IC90 of the target isoform: equal or greater than the IC90
[6]; 1.5 h (time of LPS challenge)
  Free Plasma Conc (nM): BLQ
[6]; […] (about 4 hours post LPS challenge)
  Free Plasma Conc (nM): BLQ
[7]; differentiated and M1 polarized macrophage
  IC50, CXCL12 induced p-AKT: did not significantly inhibit
[7]; differentiated and M2 polarized macrophage
  IC50, CXCL12 induced p-AKT: did not significantly inhibit
[8]
  IC50: 3 nM
